Results as given in US12642798B2, “Aripiprazole prodrug composition” (ALKERMES PHARMA IRELAND LIMITED, priority 2014, dated 2026).

Test: Particle size analysis by laser light scattering (Horiba)
Format: physicochemical
Settings: solid particulate form prior to milling
Source text: The term “particle size” or “volume based particle size” or “volume based particle size distribution” as used herein is equivalent to and also referred to as the Dv50 or D50 and means that at least about 50% of the aripiprazole prodrug particles have a diameter of less than the size specified. The aforementioned terms are used interchangeably herein. For example a volume based particle size (Dv50) of less than 1000 nm, means that 50% of the particle population has a diameter of less than 1000 nm when measured by static or dynamic light scattering techniques known to those skilled in the art. […] Unless otherwise specified, all particle sizes are specified in terms of volume based measurements and are measured by laser light scattering/diffraction. Particle sizes are then determined based on Mie scattering theory. More specifically, unless otherwise specified, volume based particle size (Dv50) is determined using a Horiba LA-950 standard model laser particle size analyser. Deionized water or water with a small quantity (for example 0.1% w/w) of surface stabilizer (for example polysorbate 20) is used as the sizing medium unless otherwise specified. […]
The particle size of the present composition may be measured using techniques such as light scattering with either water or a dilute surface stabilizer solution as the diluent. […]

CCCCCC(=O)OCN1C(=O)CCc2ccc(OCCCCN3CCN(c4cccc(Cl)c4Cl)CC3)cc21 [aripiprazole cavoxil, (7-(4-(4-(2,3-Dichlorophenyl)piperazin-1-yl)butoxy)-2-oxo-3,4-dihydroquinolin-1(2H)yl)methyl hexanoate]
particle size (Dv50) prior to milling: greater than 8 microns

CCCCCCCCCCCC(=O)OCN1C(=O)CCc2ccc(OCCCCN3CCN(c4cccc(Cl)c4Cl)CC3)cc21 [aripiprazole lauroxil, Dodecanoic acid, [7-[4-[4-(2,3-dichlorophenyl)-1-piperazinyl]butoxy]-3,4-dihydro-2-oxo-1(2H)-quinolinyl]methyl ester]
particle size (Dv50) prior to milling: greater than 10 microns
